# In publication PMC11912270, “Synthesis and SAR Studies of Acyl-Thiourea Platinum(II) Complexes Yield Analogs with Dual-Stage Antiplasmodium Activity” (ACS Medicinal Chemistry Letters, 2025):
# Like-named read-outs stand apart in the source and are kept apart here.
# Columns and labels:
# [1] = tested on: late-stage gametocytes (NF54-PfS16-GFP-Luc); assay: Luciferase reporter assay, late-stage gametocytes; assay type: cell-based, Plasmodium falciparum; details: for LG (% inhibition) 1 µM / LG (% inhibition) 5 µM: single biological repeat; for IC50: late (IV/V) gametocytes, luciferase, 48 h, read-out: LG IC50
# Method: (§1) All the complexes were tested for their early- and late-stage gametocyte activity in a dual-point assay (1 μM and 5 μM). […]
# (§2) 1.5.In vitro activity against gametocyte stages
# (§3) PfNF54 gametocytes were prepared and isolated according to the method reported by Reader […]
# (§4) The in vitro gametocyte activity of the synthesized complexes was determined using a luciferase reporter line-based assay.
# (§5) NF54-PfS16-GFP-Luc parasites were used for the stage-specific assessment of gametocytocidal activity. Early-stage gametocyte (stage I-III) experiments were performed on day 5 (representing >90% of early-stage and late-stage gametocyte (stages IV/V) experiments were performed on day 10. In each experiment, assays were set up with the use of 2-3% […]
# (§6) Luciferase activity was determined in 30 µL parasite lysates by adding luciferin substrate (30 µL) (Promega Luciferase Assay System) at room temperature. […]
# Cyclic voltammetry = assay type: physicochemical; details: for Epa1: anodic peak potential; for Epa1 / Epc1: 0.1 V/s; for Epc1: cathodic peak potential; for Epc2: second nonreversible reduction
# Source text: It is known that Fe^2+/Fe^3+ redox chemistry has an important role in the bioactivity of ferrocene derivatives.[33] The production of reactive oxygen species (ROS) is one of the modes of action of ferroquine and other ferrocene derivatives[34] and is linked to the correlation between their bioactivity and electrochemical behavior. We determined whether a similar correlation could be made for the mixed-ligand platinum(II) complexes reported herein given that metal centers have the potential to be oxidized and reduced. The electrochemistry of the complexes was studied using cyclic voltammetry (CV), which uses a triangular potential waveform. The CV experiments were performed in either dry MeOH or DMF containing tetrabutylammonium chloride (TBACl) as the supporting electrolyte. The working electrode was glassy carbon with a platinum wire as the counter electrode and Ag/AgCl as the reference. The anodic (Epa) and cathodic (Epc) peak potentials at 0.1 V/s and half-wave potentials (E1/2) were measured (Table 3). All of the tested complexes undergo reversible one-electron Pt^2+/Pt^+ reductions (Figures S38–S46). Complexes C2, C4, and C8 undergo a second nonreversible reduction (Epc2), which is most likely ligand-based and linked to reductions of the substituent on the bpy. Looking at SAR2, the more electron-withdrawing the substituent, the […] the E1/2 (V vs Fe/Fe^+) value was. This trend was expected, as a more electron-withdrawing substituent reduces the electron density around the metal center, making it easier for the metal to be reduced from Pt^2+ to Pt^+. […] This is also the case for other bpy-containing platinum(II) complexes that only undergo reductions.[35],[36] […]
# For the cyclic voltammetry experiments a solution of the test compound (1 x 10-3) in DMSO (3 mL) is added to the electrolyte solution (0.1 M tetrabutylammonium chloride (TBACl) in DMSO). The electrochemical measurements were obtained using a Basi Epsilon Eclipse Electrochemical Analyzer Potentiostat and the CV graphs were generated using Excel. The working electrode was glassy carbon (GC) with platinum wire as the counter electrode (CE) and Ag/AgCl as the reference. […]
# [2] = Single-point microsomal metabolic stability, mouse; assay type: in vitro ADME; details: for Microsomal metabolic stability (% remaining after 30 min) Mouse: mouse liver microsomes, 1 µM
# Method: (§7) 1.8. Microsomal metabolic stability studies […]
# (§8) rat IGS, Xenotech), and mouse (male mouse CD1, Xenotech) liver microsomes (0.4 mg/ml) for 30 min at 37 °C. Reactions were quenched by adding ice-cold acetonitrile containing […]
# (§9) disappearance of the parent compound. Half-life, clearance, and hepatic excretion ratios were determined using standard equations.6,7 Propranolol. […]
# PfNF54 ABS parasites = assay: SYBR Green I-based proliferative assay, PfNF54 ABS parasites; assay type: cell-based, Plasmodium falciparum; details: ABS, SYBR Green I, 96 h; mean ± S.E., N = 3 (no S.E.: N = 1)
# Method: (§10) The parasites were incubated under drug […]
# (§11) incubation, parasite survival was determined by adding equal volumes of parasite suspension (100 µL) and SYBR Green I lysis buffer (0.2% µL/mL of 10 000x SYBR Green I, 20 mM Tris-HCl, pH 7.5, 5 mM EDTA, 0.008% saponin (w/v) and 0.08% Triton x-100). This was incubated for 1 hour at room temperature in the dark. […]
# PfK1 ABS parasites = assay type: cell-based, Plasmodium falciparum; details: for IC50: ABS, SYBR Green I, 96 h, mean ± S.E.; for RI (resistance index): RI = PfK1 IC50/PfNF54 IC50
# Method: as §10, §11
# [3] = Kinetic solubility by HPLC (pH 6.5); details: for Aqueous solubility pH 6.5: kinetic, HPLC
# Method: 1.7. Kinetic solubility by HPLC (pH 6.5)
# Solubility was measured at pH 6.5 using an adapted miniaturized shake-flask method, in 96-well plate format.4,5 Briefly, 4 µL of a 10 mM stock in DMSO was added to a 96-well plate and evaporated using a GeneVac system. Phosphate buffer pH 6.5 was then added to the wells […]
# At the end of this incubation, the […]
# in the analysis plate. Analysis was then performed by HPLC-DAD and the solubility of each sample was determined from the corresponding calibration curve. […]
# [4] = tested on: early-stage gametocytes (NF54-PfS16-GFP-Luc); assay: Luciferase reporter assay, early-stage gametocytes; assay type: cell-based, Plasmodium falciparum; details: for EG (% inhibition) 1 µM / EG (% inhibition) 5 µM: single biological repeat; for IC50: early (II/III) gametocytes, luciferase, 48 h, read-out: EG IC50
# Method: as §1, §2, §3, §4, §5, §6
# [5] = Single-point microsomal metabolic stability, human; assay type: in vitro ADME; details: human liver microsomes; for Microsomal metabolic stability (% remaining after 30 min) Human: 1 µM
# Method: as §7, §8, §9
# [6] = tested on: Chinese hamster ovary (CHO) cell line; assay: MTT cytotoxicity assay; assay type: cell-based; details: 48 h, read-out: CHO IC50
# Method: 1.6.In vitro cytotoxicity assay
# A 3-(4,5-dimethylthiazol-2-yl)-2,5-diphenyltetrazoliumbromide (MTT) assay was used to screen the metal complexes against the mammalian Chinese hamster ovarian (CHO) cell line.
# A stock solution of each compound (2 mg/mL) in DMSO was prepared and kept at -20 °C until needed. Emetine was used as a reference drug. A starting concentration of 100 µg/mL was used, and serially diluted ten-fold using a complete medium to give the lowest concentration of 0.001 µg/mL (6 dilutions). The plates containing the CHO cells under drug pressure were […]
# Plates containing the drug and cell suspension were developed by adding 25 μL of sterile MTT (Thermo Fisher Scientific) (25 µL) to each well, followed by 4 h […]
# of incubation at room temperature in the dark. The plates were then centrifuged, and the supernatant was removed via aspiration. Sample absorbance was read at a wavelength of 540 […]
# analysis via GraphPad Prism v.4.0 software. The IC50 values were determined for each compound were determined from the dose-response curves. […]
# ABS parasites = assay: Dual point activity against ABS parasites; assay type: cell-based, Plasmodium falciparum; details: single biological repeat
# Source text: Table S2: Dual point activity of platinum(II) complexes against ABS parasites, early- and late-
# stage gametocytes. Values are averaged from technical triplicates performed for a single
# PfNF54 = assay: 72 h pLDH assay, PfNF54 (precursor compounds); assay type: cell-based, Plasmodium falciparum; details: for inhibition of Pf proliferation: maximum concentration of 5 μM, PfNF54; for IC50: read-out: PfNF54 IC50
# Method: Lastly, the pharmacological effect of substitution with a methyl group at different positions on the bpy ring was determined (SAR4). Changing from the 4,4′-positions (C2) to the 5,5′-positions (C14) improved the PfNF54 activity by 5-fold, whereas changing to the 6,6′-positions (C15) decreased the activity by 2-fold.
# Pf3D7 strain = details: cited from earlier work
# PfK1 = details: cited from earlier work
# [7] = half-wave potential corrected to ferrocene
Molecule,LG (% inhibition) 1 µM [1] [% inhibition],LG (% inhibition) 5 µM [1] [% inhibition],IC50 [1] [µM],Epa1 (Cyclic voltammetry),Epc1 (Cyclic voltammetry),Microsomal metabolic stability (% remaining after 30 min) Mouse [2] [% remaining],IC50 (PfNF54 ABS parasites) [µM],IC50 (PfK1 ABS parasites) [µM],EG (% inhibition) 1 µM [4] [% inhibition],EG (% inhibition) 5 µM [4] [% inhibition],IC50 [4] [µM],Microsomal metabolic stability (% remaining after 30 min) Human [5] [% remaining],"IC50 ([6]; cytotoxicity, MTT, N, n = 1, 3) [µM]",ABS (% inhibition) 1 µM (ABS parasites) [% inhibition],ABS (% inhibition) 5 µM (ABS parasites) [% inhibition],also measured
Cc1cc[n+]2c(c1)-c1cc(C)cc[n+]1[Pt-2]21[O+]=C(c2ccccc2)N=C(N(CCO)CCO)[S]1.[Cl-] [C2],11.3,25.5,> 20,–1.074 V,–1.016 V,72,1.42 ± 0.276,0.541 ± 0.044,19.9,7.9,> 20,70,> 50,70.9,104.0,E1/2 (Cyclic voltammetry; half-wave potential): –1.045 V vs Ag/Ag^+; E1/2 (Cyclic voltammetry; [7]): –1.585 V vs Fe/Fe^+; Epc2 (Cyclic voltammetry): –1.084 V vs Ag/Ag^+; RI (resistance index) (PfK1 ABS parasites): 0.4; Aqueous solubility pH 6.5 [3]: 170 μM
OCCN(CCO)C1=NC(c2ccccc2)=[O+][Pt-2]2([S]1)[n+]1ccccc1-c1cccc[n+]12.[Cl-] [C3],14.8,39.8,> 20,–1.210 V,–1.014 V,75,0.142 ± 0.012,0.184 ± 0.022,26.9,0.0,> 20,72,> 50,68.7,103.1,
COc1cc[n+]2c(c1)-c1cc(OC)cc[n+]1[Pt-2]21[O+]=C(c2ccccc2)N=C(N(CCO)CCO)[S]1.[Cl-] [C4],14.8,54.4,> 20,–1.136 V,–1.064 V,88,0.266 ± 0.029,0.164 ± 0.007,6.8,9.1,> 20,63,> 50,67.1,99.8,E1/2 (Cyclic voltammetry; half-wave potential): –1.100 V vs Ag/Ag^+; E1/2 (Cyclic voltammetry; [7]): –1.640 V vs Fe/Fe^+; Epc2 (Cyclic voltammetry): –1.515 V vs Ag/Ag^+; RI (resistance index) (PfK1 ABS parasites): 0.6; Aqueous solubility pH 6.5 [3]: 195 μM
"[Cl][Pt-2]([Cl])([Cl])[Cl].[K+].[K+] [K2PtCl4, potassium tetrachloroplatinate]",,,,,,,,,,,,,> 50,,,"inhibition of Pf proliferation (PfNF54): did not inhibit Pf proliferation; IC50 (PfNF54; precursor compounds, 72 h pLDH assay): > 5 µM"
"CS(=O)(=O)c1ccc(-c2cnc(N)c(-c3ccc(C(F)(F)F)nc3)c2)cc1 [MMV390048, reference compound]",,,,,,,,,,,,,,,,"remaining at 0.5 h, 1 µM ([2]; male, CD1, mouse liver microsomes, 30 min, read-out: Microsomal metabolic stability (% remaining after 30 min) Mouse): > 95%; solubility at 24 h ([3]; phosphate buffer, 25 °C, pH 6.5, aqueous buffer, thermodynamic from solid): < 5 µM; remaining at 0.5 h, 1 µM ([5]; both sexes, 30 min, read-out: Microsomal metabolic stability (% remaining after 30 min) Human): > 95%"
O=C(NC(=S)N(CCO)CCO)c1ccccc1 [compound 2],,,,,,,,,,,,,,,,"IC50 (PfNF54; Plasmodium falciparum, 72 h): > 5 µM; inhibition of Pf proliferation (PfNF54): did not inhibit Pf proliferation; IC50 ([6]; Cricetulus griseus, CHO): > 50 µM"
ferroquine [FQ],,,,,,,,,,,,,,,,fold increase in activity compared to CQ (Pf3D7 strain): 1.7 fold; fold increase in activity compared to CQ (PfK1): 25 fold
